US20240051958A1, “DIACYLGLYCEROL KINASE (DGK) ALPHA INHIBITORS AND USES THEREOF” (priority 2022, published 2024)

What was measured:
DGKA = DGKA (Homo sapiens (Human), UniProt P23743); experiment: DGKA Inhibition ADP-Glo Assay; type: biochemical; settings: 40 μM ATP, 200 μM DLG in substrate working solution, 25° C., 60 min
Method: The DGKA inhibition reactions were performed using ADP-Glo assay. The reactions were carried out in 50 mM HEPES, 100 mM NaCl, 10 mM MgCl2, 1 mM CaCl2, 0.005% TritonX-100 and 1 mM DTT as working solution (pH=7.5). 30 nL DMSO solution of each test compound (Top concentration 0.4 μM with 10 point, 4-fold dilution series for each compound) were transferred to 384 well plate by Echo and 5 μL DGKA (SignalChem, D21-10BG) enzyme working solution at 2×final reaction concentration was added to each well. After incubated at 25° C. for 15 minutes, 5 μL substrate working solution contain 40 μM ATP (Promega, V915B) and 200 μM DLG (SignalChem, D430-59) were added to initiate reaction. After enzymatic reaction at 25° C. for 60 min, ADP Glo assay reagents (Promega, V9102) were added and luminescence was recorded using an EnVision following the instruction of manual. […] The IC50 value was calculated via a regression analysis of the inhibition rate.

Human Pan T cells = experiment: IL-2 Release Detection Assay; type: cell-based; settings: for Activation fold: Top activation/DMSO control; for Activation % at 100 nM: fitted curve at 100 nM/DMSO control*100%
Method: Add dilutions of compounds into the cells and incubate at 37° C. &5% CO2 for 24 hours. IL-2 in cell supernatant was detected by ELISA Kit (R&D, DY202). […] Top and Bottom: Plateaus in same units as Y. LogEC50: same log units as X. Activation fold: Top activation/DMSO control. Activation % at 100 nM: Activation of non-linear regression equation curve at the concentration of 100 nM/DMSO control*100%.

Sequence of DGKA (P23743 whole entry): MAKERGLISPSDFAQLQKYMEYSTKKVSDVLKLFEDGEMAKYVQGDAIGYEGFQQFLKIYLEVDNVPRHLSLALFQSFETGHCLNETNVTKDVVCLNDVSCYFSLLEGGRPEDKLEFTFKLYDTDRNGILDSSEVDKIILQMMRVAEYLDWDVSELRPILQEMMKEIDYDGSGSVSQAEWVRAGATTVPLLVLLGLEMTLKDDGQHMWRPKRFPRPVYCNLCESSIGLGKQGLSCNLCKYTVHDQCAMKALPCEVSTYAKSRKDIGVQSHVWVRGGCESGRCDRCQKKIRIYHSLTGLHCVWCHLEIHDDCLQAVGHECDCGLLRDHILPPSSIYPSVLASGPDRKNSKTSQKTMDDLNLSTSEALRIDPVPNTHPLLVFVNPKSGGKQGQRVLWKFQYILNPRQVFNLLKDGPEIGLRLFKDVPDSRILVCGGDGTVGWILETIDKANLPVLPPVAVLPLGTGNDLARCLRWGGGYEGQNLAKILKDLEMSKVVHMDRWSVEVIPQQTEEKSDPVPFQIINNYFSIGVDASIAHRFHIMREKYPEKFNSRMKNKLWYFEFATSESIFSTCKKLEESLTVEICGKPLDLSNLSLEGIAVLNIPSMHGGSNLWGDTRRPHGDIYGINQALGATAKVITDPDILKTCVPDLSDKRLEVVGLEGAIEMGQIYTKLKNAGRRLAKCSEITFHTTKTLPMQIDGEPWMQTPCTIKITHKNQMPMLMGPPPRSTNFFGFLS

Row | Compound | IC50 (DGKA) [nM] | Activation fold (Human Pan T cells) | Activation % at 100 nM (Human Pan T cells) [%]
1 | Cc1ccc2oc(C3CCN(c4nc(=O)n(C)c5ccc(C#N)nc45)CC3)nc2c1 [Example 14, 1-methyl-4-(4-(5-methylbenzo[d]oxazol-2-yl)piperidin-1-yl)-2-oxo-1,2-dihydropyrido[3,2-d]pyrimidine-6-carbonitrile] | 143 |  | 
2 | Cc1ccc2oc(C3CCN(c4cc(=O)n(C)c5cc(OCCN)c(C#N)nc45)CC3)nc2c1 [Example 26, 3-(2-aminoethoxy)-5-methyl-8-(4-(5-methylbenzo[d]oxazol-2-yl)piperidin-1-yl)-6-oxo-5,6-dihydro-1,5-naphthyridine-2-carbonitrile] | 3.34 |  | 
3 | Cc1ccc2oc(C3CCN(c4cc(=O)n(C)c5cc(OC6CCOCC6)c(C#N)nc45)CC3)nc2c1 [Example 25, 5-methyl-8-(4-(5-methylbenzo[d]oxazol-2-yl)piperidin-1-yl)-6-oxo-3-((tetrahydro-2H-pyran-4-yl)oxy)-5,6-dihydro-1,5-naphthyridine-2-carbonitrile] | 5.29 |  | 
4 | Cc1ccc2oc(C3CCN(c4nc(=O)n(C)c5ccc(Cl)nc45)CC3)nc2c1 [Example 13, 6-chloro-1-methyl-4-(4-(5-methylbenzo[d]oxazol-2-yl)piperidin-1-yl)pyrido[3,2-d]pyrimidin-2(1H)-one] | 4.11 |  | 
5 | COCCOc1cc2c(nc1C#N)c(N1CCC(c3nc4cc(C)ccc4o3)CC1)cc(=O)n2C [Example 16, 3-(2-methoxyethoxy)-5-methyl-8-(4-(5-methylbenzo[d]oxazol-2-yl)piperidin-1-yl)-6-oxo-5,6-dihydro-1,5-naphthyridine-2-carbonitrile] | 0.35 | 6.29 | 253
6 | Cc1ccc2oc(C3CCN(c4cc(=O)n(C)c5cc(OC6CCOC6)c(Cl)nc45)CC3)nc2c1 (stereo not drawn) [Example 20, 6-chloro-1-methyl-4-(4-(5-methylbenzo[d]oxazol-2-yl)piperidin-1-yl)-7-((tetrahydrofuran-3-yl)oxy)-1,5-naphthyridin-2(1H)-one] | 0.13 |  | 
7 | Cc1ccc2oc(C3CCN(c4nc(=O)n(C)c5ccc(Cl)cc45)CC3)nc2c1 [Example 4, 6-chloro-1-methyl-4-(4-(5-methylbenzo[d]oxazol-2-yl)piperidin-1-yl)quinazolin-2(1H)-one] | 4.43 | 3.5 | 211
8 | Cc1ccc2oc(C3CCN(c4cc(=O)n(C)c5cc(OCCO)c(Cl)nc45)CC3)nc2c1 [Example 22, 6-chloro-7-(2-hydroxyethoxy)-1-methyl-4-(4-(5-methylbenzo[d]oxazol-2-yl)piperidin-1-yl)-1,5-naphthyridin-2(1H)-one] | 0.15 |  | 
9 | Cc1ccc2oc(C3CCN(c4cc(=O)n(C)c5cc(OC6CCNC6)c(C#N)nc45)CC3)nc2c1 (stereo not drawn) [Example 27, 5-methyl-8-(4-(5-methylbenzo[d]oxazol-2-yl)piperidin-1-yl)-6-oxo-3-(pyrrolidin-3-yloxy)-5,6-dihydro-1,5-naphthyridine-2-carbonitrile] | 13.6 |  | 
10 | Cc1ccc2oc(C3CCN(c4nc(=O)n(C)c5ccc(C#N)cc45)CC3)nc2c1 [Example 5, 1-methyl-4-(4-(5-methylbenzo[d]oxazol-2-yl)piperidin-1-yl)-2-oxo-1,2-dihydroquinazoline-6-carbonitrile] | 103 |  | 
11 | Cc1ccc2oc(C3CCN(c4cc(=O)n(C)c5cc(NCCO)c(Cl)nc45)CC3)nc2c1 [Example 17, 6-chloro-7-((2-hydroxyethyl)amino)-1-methyl-4-(4-(5-methylbenzo[d]oxazol-2-yl)piperidin-1-yl)-1,5-naphthyridin-2(1H)-one] | 0.12 | 8.2 | 159
12 | Cc1ccc2oc(C3CCN(c4cc(=O)n(C)c5cc(NCCO)c(C#N)nc45)CC3)nc2c1 [Example 18, 3-((2-hydroxyethyl)amino)-5-methyl-8-(4-(5-methylbenzo[d]oxazol-2-yl)piperidin-1-yl)-6-oxo-5,6-dihydro-1,5-naphthyridine-2-carbonitrile] | 0.1 | 6.9 | 355
13 | Cc1ccc2oc(C3CCN(c4cc(=O)n(C)c5ccc(Cl)cc45)CC3)nc2c1 [Example 2, 6-chloro-1-methyl-4-(4-(5-methylbenzo[d]oxazol-2-yl)piperidin-1-yl)quinolin-2(1H)-one] | 0.47 | 5.3 | 234
14 | Cc1ccc2oc(C3CCN(c4cc(=O)n(C)c5cc(OCCCO)c(C#N)nc45)CC3)nc2c1 [Example 24, 3-(3-hydroxypropoxy)-5-methyl-8-(4-(5-methylbenzo[d]oxazol-2-yl)piperidin-1-yl)-6-oxo-5,6-dihydro-1,5-naphthyridine-2-carbonitrile] | 0.31 | 25.6 | 679
15 | Cc1ccc2oc(N3[C@@H]4CC[C@H]3CN(c3c(C#N)c(=O)n(C)c5ccc(F)cc35)C4)nc2c1 [Example 8, 6-fluoro-1-methyl-4-((1R,5S)-8-(5-methylbenzo[d]oxazol-2-yl)-3,8-diazabicyclo[3.2.1]octan-3-yl)-2-oxo-1,2-dihydroquinoline-3-carbonitrile] | 7.74 |  | 
16 | Cc1ccc2oc(C3CCN(c4cc(=O)n(C)c5cc(NCCO)cnc45)CC3)nc2c1 [Example 19, 7-((2-hydroxyethyl)amino)-1-methyl-4-(4-(5-methylbenzo[d]oxazol-2-yl)piperidin-1-yl)-1,5-naphthyridin-2(1H)-one] | 2.36 |  | 
17 | COCCOc1cc2c(nc1Cl)c(N1CCC(c3nc4cc(C)ccc4o3)CC1)cc(=O)n2C [Example 15, 6-chloro-7-(2-methoxyethoxy)-1-methyl-4-(4-(5-methylbenzo[d]oxazol-2-yl)piperidin-1-yl)-1,5-naphthyridin-2(1H)-one] | 0.19 | 6.5 | 214
18 | Cc1ccc2oc(C3CCN(c4nc(=O)n(C)c5ccc(F)cc45)CC3)nc2c1 [Example 7, 6-fluoro-1-methyl-4-(4-(5-methylbenzo[d]oxazol-2-yl)piperidin-1-yl)quinazolin-2(1H)-one] | 16 |  | 
19 | Cc1ccc2oc(C3CCN(c4cc(=O)n(C)c5ccc(Cl)nc45)CC3)nc2c1 [Example 10, 6-chloro-1-methyl-4-(4-(5-methylbenzo[d]oxazol-2-yl)piperidin-1-yl)-1,5-naphthyridin-2(1H)-one] | 0.36 | 7.3 | 143
20 | Cc1ccc2oc(C3CCN(c4cc(=O)n(C)c5ccc(C#N)cc45)CC3)nc2c1 [Example 3, 1-methyl-4-(4-(5-methylbenzo[d]oxazol-2-yl)piperidin-1-yl)-2-oxo-1,2-dihydroquinoline-6-carbonitrile] | 2.35 | 7.8 | 370
21 | Cn1c(=O)cc(N2CCC(c3nc4cc(F)ccc4o3)CC2)c2nc(Cl)ccc21 [Example 11, 6-chloro-4-(4-(5-fluorobenzo[d]oxazol-2-yl)piperidin-1-yl)-1-methyl-1,5-naphthyridin-2(1H)-one] | 0.66 | 6.1 | 169
22 | Cc1ccc2oc(C3CCN(c4cc(=O)n(C)c5ccc(F)cc45)CC3)nc2c1 [Example 6, 6-fluoro-1-methyl-4-(4-(5-methylbenzo[d]oxazol-2-yl)piperidin-1-yl)quinolin-2(1H)-one] | 1.23 |  | 
23 | Cc1ccc2oc(C3CCN(c4cc(=O)n(C)c5cc(OC6CCOC6)c(C#N)nc45)CC3)nc2c1 (stereo not drawn) [Example 21, 5-methyl-8-(4-(5-methylbenzo[d]oxazol-2-yl)piperidin-1-yl)-6-oxo-3-((tetrahydrofuran-3-yl)oxy)-5,6-dihydro-1,5-naphthyridine-2-carbonitrile] | 0.23 | 10.1 | 520
24 | Cc1ccc2oc(C3CCN(c4c(C#N)c(=O)n(C)c5ccc(Cl)nc45)CC3)nc2c1 [Example 9, 6-chloro-1-methyl-4-(4-(5-methylbenzo[d]oxazol-2-yl)piperidin-1-yl)-2-oxo-1,2-dihydro-1,5-naphthyridine-3-carbonitrile] | 2.04 | 7.7 | 206
25 | Cc1ccc2oc(C3CCN(c4cc(=O)n(C)c5cc(O[C@H]6CCOC6)c(C#N)nc45)CC3)nc2c1 [Example 29, (S)-5-methyl-8-(4-(5-methylbenzo[d]oxazol-2-yl)piperidin-1-yl)-6-oxo-3-((tetrahydrofuran-3-yl)oxy)-5,6-dihydro-1,5-naphthyridine-2-carbonitrile] | 0.7 | 8.5 | 292
26 | Cc1ccc2oc(N3CC=C(c4cc(=O)n(C)c5cc(OCCO)c(C#N)nc45)CC3)nc2c1 [Example 30, 3-(2-hydroxyethoxy)-5-methyl-8-(1-(5-methylbenzo[d]oxazol-2-yl)-1,2,3,6-tetrahydropyridin-4-yl)-6-oxo-5,6-dihydro-1,5-naphthyridine-2-carbonitrile] | 0.65 | 11.0 | 244
